{"source": "patent US20230060873A1", "about": "“COMPOUNDS AND METHODS FOR FORMING ION CHANNELS IN BIOLOGICAL MEMBRANES” (Washington University, priority 2021, published 2023)", "key": {"[1]": {"test_system": "B. subtilis membrane", "experiment": "DiSC3(5) depolarization assay, lariat ethers", "type": "cell-based, Bacillus subtilis", "conditions": "2 μM compound; 60 mM KCl, NaCl or NMDG-Cl; NMDG-MeSO3 solution; 25° C", "description": "Dialkylated lariat ethers LEC6-LEC14 were then tested for their ability to depolarize a B. subtilis membrane using the fluorescent dye 3,3-dipropylthiadicarbocyanine (DiSC3(5)), which undergoes membrane voltage-dependent partitioning between the intracellular and the extracellular medium. FIGS. 23-31 show the time course of the DiSC3(5) fluorescence due to the activity of dialkylated lariat ethers with alkyl chains 6 to 14 carbons in length. The experiment was performed in a NMDG-MeSO3 solution (100 mM NMDG, 10 mM HEPES, pH adjusted to 7.4 with methanesulfonic acid). The events are: t1, addition of dye; t2, addition of B. subtilis; t3, addition of a 2 M KCl or a 2 M NMDG-Cl solution up to a final concentration of 60 mM; t4, addition of dialkylated lariat ether up to 2 μM. Control experiments were performed that were similar to the two previously described experiments, with the exception that additional NMDG-MeSO3 solution without cells was added at timepoint t2. The experiments were normalized relative to the final fluorescence intensity in the control experiments, as described below.\nTo conduct the experiments shown in FIGS. 23-31, a 2-mL liquid culture of B. subtilis cells was grown at 37° C. in LB media until OD600=0.600, and then collected by centrifugation at 2000 rpm during 3 min. The bacteria were washed once in NMDG-MeSO3 solution (100 mM NMDG, 10 mM HEPES, pH adjusted to 7.4 with methanesulfonic acid) or dextrose solution (200 mM dextrose, 10 mM Tris, pH adjusted to 7.4 with HCl) depending on the experiment. The centrifugation step was repeated and the bacteria were resuspended until OD600=1.0 in the same solution. The working dye solution was a 200 μM solution of DiSC3(5) (3,3′-dipropylthiadicarbocyanine iodide; Tokyo Chemical Industry) in DMSO. […] After 150 sec (timepoint t3, 250 sec) the fluorescence stabilized to a minimum intensity and 100 μL of 2M NMDG-Cl, 2M NaCl or 2 M KCl solution was added to reach a about 60 mM final concentration of the salt. […] Fluorescence intensity was recorded each second using a Horiba Fluoromax 4 spectrometer (excitation wavelength=640 nm; emission wavelength=670 nm). […] To normalize the fluorescence, experiments in the same conditions but without adding bacteria were performed, normalization was done by dividing the fluorescence by the final fluorescence level of these experiments.\nCell hyperpolarization (more negatively charged inside the cell) results in an uptake of the dye, while cell membrane depolarization (more positively charged inside the cell) results in a release of the dye. The accumulation of the dye in the interior of the cell can be detected by a decrease in fluorescence due to self-quenching, which enables the dye to be utilized as an indirect reporter of changes in cell membrane voltage. […]"}, "[2]": {"test_system": "B. subtilis cells", "experiment": "Lactate dehydrogenase release (resofurin fluorescence), MAcBCE/MAkBCE and controls", "type": "cell-based, Bacillus subtilis", "conditions": "37° C, potassium lactate/NAD+ solution", "description": "A 2 mL liquid culture of transformed B. subtilis cells was grown at 37° C. in LB media supplemented with […] kanamycin, until OD600=0.6. Cells were collected by centrifugation at 2000 rpm over 3 min. The bacterial pellet was washed twice in lactate/NAD^+ solution (95 mM potassium lactate, 10 mM nicotinamide adenine dinucleotide (NAD^+), 10 mM HEPES, pH adjusted to 7.4 with KOH). After the last centrifugation step, the bacteria were resuspended until OD600=1.0 in the lactate/NAD^+ solution, then diluted 100× in the same solution. The working fluorophore solution was a 1 mM of resazurin sodium salt (Alfa Cesar) in water. The experiment was started with 3 mL of lactate/NAD^+ solution in a quartz cuvette, then 3.1 μL of resazurin solution was added (timepoint t1, 50 sec) for a 1 μM final concentration, followed by the addition of 100 μL of the diluted B. subtilis suspension (timepoint t2, 100 sec). After 150 sec (timepoint t3, 250 sec), 10 μL of diaphorase (Worthinton Biochemical Corporation) 10 mg/mL solution was added. The final step involved the addition of 0.62 μL of a 10 mM stock solution of dialkylated diaza lariat ether (LEC10) in TFE (timepoint t4, 400 sec), for a final LEC10 concentration of 2 μM; or 3.1 μL of a 2 mM stock solution of valinomycin in DMSO, for a final valinomycin concentration of 2 μM; or 3.1 μL of a 20 mg/mL stock solution of lysozyme in lactate/NAD^+ solution, for a final lysozyme concentration of 20 μg/mL; or 3.1 μL of 10 mM stock solution of each MAcBCE or MAkBCE compounds in TFE, for final concentrations of 10 μM. Fluorescence intensity was recorded each second using a Horiba Fluoromax 4 spectrometer (λexcitation=550 nm; λemission=583 nm). […] To normalize, the fluorescence intensity was divided by the fluorescence level just before timepoint t4. […]\nExperiments were repeated at least three times per condition. To normalize, the fluorescence intensity was divided by the fluorescence level just before timepoint t4."}}}
{"compound": "CC(C)[C@@H]1NC(=O)[C@H](C)OC(=O)[C@@H](C(C)C)NC(=O)[C@@H](C(C)C)OC(=O)[C@H](C(C)C)NC(=O)[C@H](C)OC(=O)[C@@H](C(C)C)NC(=O)[C@@H](C(C)C)OC(=O)[C@H](C(C)C)NC(=O)[C@H](C)OC(=O)[C@@H](C(C)C)NC(=O)[C@@H](C(C)C)OC1=O", "note": "[valinomycin]", "values": [{"measurement": "relative DiSC3(5) release in the presence of different cations", "setting": "[1]", "result": "only when K^+ was added"}, {"measurement": "resofurin fluorescence (LDH release)", "setting": "[2]; 2 μM", "result": "no effect"}]}
{"compound": "lysozyme", "values": [{"measurement": "resofurin fluorescence (LDH release)", "setting": "[2]; 20 μg/mL", "result": "increase in the resofurin fluorescence levels"}]}
